How the values were obtained:
BxPC-3 cells = assay: Cell viability assay (CellTiter Glo); format: cell-based; conditions: Homo sapiens, 72 h
Protocol: BxPC-3 cells were grown in RPMI 1640 containing 10% FBS, 100 U/ml penicillin/streptomycin, 2 mM glutamine. All media and supplements were from Sigma-Aldrich. Cultures were routinely tested for Mycoplasma contamination. Treatments (Olaparib and BRCA2-Rad51 disruptors) were administered in culture medium supplemented with 0.6% DMSO. The same amount of DMSO was added to the control, untreated cultures.
Cell viability was assessed by CellTiter Glo, Luminescent Cell Viability Assay. Briefly, BxPC-3 cells (1×10^4/well) were plated in white 96-well plates with clear bottom and treated for 72 h with olaparib (10 μM) or with the BRCA2-Rad51 disruptors, given alone or in combination. After treatments, the plate was allowed to equilibrate at room temperature for 30 min and the CellTiter-Glo reactive was directly added to each well. The plate was kept on a shaker for 2 min to induce cell lysis and its luminescence was measured by using a Fluoroskan Ascent FL reader (Labsystems) using manufacturer's instructions.

[1] = test system: Homologous recombination (HR) in BxPC3 cells; assay: Homologous recombination assay (HR); format: cell-based; conditions: Homo sapiens; for inhibition at 20 µM: BXPC-3, at 20 μM
Protocol: Homologous recombination (HR) was assessed by using a commercially available assay (Norgen). This assay is based on cell co-transfection with two plasmids that, upon cells entering, recombinate. The efficiency of HR can be assessed by real time PCR, using primer mixtures included in the assay kit. Different primer mixtures allow differentiation between the original plasmid backbones and their recombination product.
BxPC3 cells (2×10^3 per well) were seeded in a 24-well plate and allowed to adhere overnight. Co-transfection with the two plasmids was performed in Lipofectamine 2000 (Invitrogen) for 5 h, according to the manufacturer's instructions. During transfection cells were exposed at different doses of BRCA2-Rad51 disruptors, dissolved in RPMI without serum in the presence of 0.6% DMSO.
After washing with PBS, cells were harvested, and DNA was isolated using QIAamp® DNA Mini Kit (Qiagen). Sample concentration was measured using an ONDA Nano Genius photometer.
The thermal cycler (CFX96 ™ Real Time System, BioRad) was programmed as follows: initial denaturation 95° C. for 3 min then 95° C. for 15 sec., 61° C. for 30 sec., 72° C. for 1 min and repeated for 40 cycles. Melt curve analysis was done. Samples were run in triplicate, in 10 μl reaction volume containing 25 ng of template.
In each DNA sample from control and treated cultures, the ΔCt between the recombination product and the backbone plasmids was calculated. HR efficiency was evaluated from the 2^−ΔΔ^Ct value obtained by comparing treated vs control samples.

BRC4/RAD51 interaction = target: T1, BRC4/RAD51 interaction (Homo sapiens, UniProt Q06609); assay: Competitive ELISA assay, disruption of BRC4/RAD51 interaction; format: binding; conditions: human Rad51, biotinylated BRC4 peptide
T1 construct: purchased Creative Biomart (Rad51); Life Technologies (BRC4 peptide)
T1 sequence (Q06609 1-339): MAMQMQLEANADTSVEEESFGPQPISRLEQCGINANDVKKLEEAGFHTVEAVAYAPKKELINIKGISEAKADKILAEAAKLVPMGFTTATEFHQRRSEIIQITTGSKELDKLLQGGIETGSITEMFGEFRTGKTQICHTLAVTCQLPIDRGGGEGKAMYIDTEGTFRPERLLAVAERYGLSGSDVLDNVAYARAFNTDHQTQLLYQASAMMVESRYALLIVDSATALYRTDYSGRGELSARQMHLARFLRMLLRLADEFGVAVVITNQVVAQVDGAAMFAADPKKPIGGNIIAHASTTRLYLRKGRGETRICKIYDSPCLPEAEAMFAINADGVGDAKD
Protocol: A competitive ELISA screening assay using biotinylated BRC4 peptide to disrupt the BRC4/RAD51 interaction was performed by modifying the method described by Rajendra et al. (Nucleic Acids Res. 38 (2010) 82-96). BRC4-biotinylated peptide (N-term Biotin[…] from Life Technologies) was used to coat 384-well plates (Nunc). After washing with PBS containing 0.05% Tween-20 (PBST), and blocking with the solution BSA 1%/PBST, overnight hybridization with human Rad51 protein (NP_002866 Creative Biomart, NY) was performed. Test compounds were added in dose-response from […] in triplicate with constant DMSO 1%. Antibody raised against Rad51 (Millipore) and HRP-secondary antibody staining to develop the 3,30,5,50-tetramethyllbenzidine signal (Sigma) quenched with 1M HCl was used as the assay readout. Colorimetric measure was read on Victor5 (PerkinElmer) plate Reader. BRC4 and Rad51 were included in the assay as positive control. Results were analyzed using GraphPad Software.

Compound	EC50 (BxPC-3 cells) [µM]	inhibition at 5 µM ([1]; BXPC-3, at 5 μM) [%]	EC50 (BRC4/RAD51 interaction) [µM]	inhibition at 20 µM [1] [%]
CCCn1ncc2cc(C3CC(c4c(-c5ccccc5)c5cc(Cl)ccc5[nH]c4=O)=NN3C(C)=O)ccc21 (stereo not shown) [d.34, 3-[2-acetyl-3-(1-propylindazol-5-yl)-3,4-dihydropyrazol-5-yl]-6-chloro-4-phenyl-1H-quinolin-2-one]	11	83	0.95	
CC(=O)N1N=C(c2c(-c3ccccc3)c3cc(Cl)ccc3[nH]c2=O)CC1c1ccc(-c2ccc(Br)cc2)cc1 (stereo not shown) [d.40, 3-[2-acetyl-3-[4-(4-bromophenyl)phenyl]-3,4-dihydropyrazol-5-yl]-6-chloro-4-phenyl-1H-quinolin-2-one]	28		45	
CCCn1cc(-c2ccc(C3CC(c4c(-c5ccccc5)c5cc(Cl)ccc5[nH]c4=O)=NN3C(=O)CCC(=O)O)cc2)cn1 (stereo not shown) [d.43, 4-[5-(6-chloro-2-oxo-4-phenyl-1H-quinolin-3-yl)-3-[4-(1-propylpyrazol-4-yl)phenyl]-3,4-dihydropyrazol-2-yl]-4-oxo-butanoic acid]	74.2		65	
CC(=O)N1N=C(c2c(-c3ccccc3)c3cc(Cl)ccc3[nH]c2=O)CC1c1ccccc1 (stereo not shown) [d.47, 3-(2-acetyl-3-phenyl-3,4-dihydropyrazol-5-yl)-6-chloro-4-phenyl-1H-quinolin-2-one]	29.7		19	
CCC(=O)N1N=C(c2c(-c3ccccc3)c3cc(Cl)ccc3[nH]c2=O)CC1c1ccccc1 (stereo not shown) [d.48, 6-chloro-4-phenyl-3-(3-phenyl-2-propanoyl-3,4-dihydropyrazol-5-yl)-1H-quinolin-2-one]	13.7		24	
CC(=O)N1N=C(c2c(Cc3ccccc3)c3cc(Cl)ccc3[nH]c2=O)CC1c1ccc(F)cc1 (stereo not shown) [d.51, 3-[2-acetyl-3-(4-fluorophenyl)-3,4-dihydropyrazol-5-yl]-4-benzyl-6-chloro-1H-quinolin-2-one]	15.2		13	
O=C(O)CCC(=O)N1N=C(c2c(Cc3ccccc3)c3cc(Cl)ccc3[nH]c2=O)CC1c1ccc(Cl)cc1 (stereo not shown) [d.55, 4-[5-(4-benzyl-6-chloro-2-oxo-1H-quinolin-3-yl)-3-(4-chlorophenyl)-3,4-dihydropyrazol-2-yl]-4-oxo-butanoic acid]	23.2		70	
COc1ccc(C2CC(c3c(Cc4ccccc4)c4cc(Cl)ccc4[nH]c3=O)=NN2C(=O)CCC(=O)O)cc1F (stereo not shown) [d.66, 4-[5-(4-benzyl-6-chloro-2-oxo-1H-quinolin-3-yl)-3-(3-fluoro-4-methoxy-phenyl)-3,4-dihydropyrazol-2-yl]-4-oxo-butanoic acid]	79.2		25	6.15
O=C(O)CCC(=O)N1N=C(c2c(Cc3ccccc3)c3cc(Cl)ccc3[nH]c2=O)CC1c1ccc(-c2ccc(Cl)cc2)cc1 (stereo not shown) [d.84, 4-[5-(4-benzyl-6-chloro-2-oxo-1H-quinolin-3-yl)-3-[4-(4-chlorophenyl)phenyl]-3,4-dihydropyrazol-2-yl]-4-oxo-butanoic acid]	28.4		90	21.7
CCn1cc2cc(-c3ccc(C4CC(c5c(Cc6ccccc6)c6cc(Cl)ccc6[nH]c5=O)=NN4C(=O)CCC(=O)O)cc3)ccc2n1 (stereo not shown) [d.93, 4-[5-(4-benzyl-6-chloro-2-oxo-1H-quinolin-3-yl)-3-[4-(2-ethylindazol-5-yl)phenyl]-3,4-dihydropyrazol-2-yl]-4-oxo-butanoic acid]	56.6		53	
CC(=O)N1N=C(c2c(-c3ccccc3)c3cc(Cl)ccc3[nH]c2=O)CC1c1ccncc1 (stereo not shown) [d.97, 3-(1-acetyl-5-(pyridin-4-yl)-4,5-dihydro-1H-pyrazol-3-yl)-6-chloro-4-phenylquinolin-2 (1H)-one]	24.3		60	
O=C(O)CCC(=O)N1N=C(c2c(-c3ccccc3)c3cc(Cl)ccc3[nH]c2=O)CC1c1cccnc1 (stereo not shown) [d.98, 4-(3-(6-chloro-2-oxo-4-phenyl-1,2-dihydroquinolin-3-yl)-5-(pyridin-3-yl)-4,5-dihydro-1H-pyrazol-1-yl)-4-oxobutanoic acid]	144		75	22
